Reference: ChEMBL document CHEMBL4196025 (Eur J Med Chem, 2018)
Calls of active or inactive are those of the source. The rule behind the calls is not given here.

Assays:
[1] = target: Acetylcholinesterase (Electrophorus electricus, UniProt O42275); test: Inhibition of electric eel AChE using acetylthiocholine iodide as substrate preincubated for 5 mins followed by DTNB addition for 5 mins and subsequent addition of substrate measured after 3 mins by Ellman's method
[2] = target: Cholinesterase (Equus caballus, UniProt P81908)
Description: Inhibition of equine serum BCHE using butyrylthiocholine iodide as substrate preincubated for 5 mins followed by DTNB addition for 5 mins and subsequent addition of substrate measured after 3 mins by Ellman's method

[3] = target: T1, Acetylcholinesterase (Homo sapiens, UniProt P22303); test: Mixed-type inhibition of human erythrocyte AChE at 2.5 to 10 nM using varying levels of acetylthiocholine iodide as substrate by Lineweaver-Burk plot analysis
[4] = in vitro; settings: human, HepG2 cells
Description: Cytotoxicity against human HepG2 cells assessed as cell viability at 10 uM after 24 hrs by MTT assay relative to control

[5] = target: T1, Acetylcholinesterase; test: Potency index, ratio of tacrine IC50 to compound IC50 for inhibition of human erythrocyte AChE
[6] = tested on: PC-12; test: Protection against CoCl2-induced damage in rat PC12 cells assessed as increase in cell viability preincubated for 36 hrs followed by CoCl2 addition measured after 12 hrs by MTT assay; type: functional, cell-based
[7] = Cytotoxicity against NGF-differentiated rat PC12 cells assessed as cell viability at 10 uM after 48 hrs by MTT assay relative to control; type: cell-based, PC-12; settings: read-out: Activity
[8] = target: Amyloid-beta precursor protein (Homo sapiens) (UniProt P05067); test: Inhibition of self-induced amyloid beta (1 to 42) (unknown origin) aggregation at 100 uM measured after 24 hrs by ThT fluorescence assay relative to control
[9] = target: Amyloid-beta precursor protein (Homo sapiens) (UniProt P05067); test: Inhibition of self-induced amyloid beta (1 to 42) (unknown origin) aggregation at 20 uM measured after 24 hrs by ThT fluorescence assay relative to control
[10] = tested on: PC-12; test: Protection against CoCl2-induced damage in rat PC12 cells assessed as cell viability at 10 uM preincubated for 36 hrs followed by CoCl2 addition measured after 12 hrs by MTT assay (reference value: 51.2%); type: functional; settings: read-out: Activity
[11] = tested on: PC-12; test: Protection against CoCl2-induced damage in rat PC12 cells assessed as cell viability at 2.5 uM preincubated for 36 hrs followed by CoCl2 addition measured after 12 hrs by MTT assay (reference value: 51.2%); type: functional; settings: read-out: Activity
[12] = target: Amyloid-beta precursor protein (Homo sapiens) (UniProt P05067); test: Inhibition of self-induced amyloid beta (1 to 42) (unknown origin) aggregation measured after 24 hrs by ThT fluorescence assay
[13] = in vitro; settings: human, HepG2 cells; remark: listed apart in the source
Description: Cytotoxicity against human HepG2 cells assessed as cell viability at 1.25 uM after 24 hrs by MTT assay relative to control

[14] = target: Cholinesterase (Homo sapiens, UniProt P06276); test: Inhibition of human serum BCHE using butyrylthiocholine iodide as substrate preincubated for 5 mins followed by DTNB addition for 5 mins and subsequent addition of substrate measured after 3 mins by Ellman's method
[15] = target: T1, Acetylcholinesterase; test: Inhibition of human erythrocyte AChE using acetylthiocholine iodide as substrate preincubated for 5 mins followed by DTNB addition for 5 mins and subsequent addition of substrate measured after 3 mins by Ellman's method
[16] = target: Acetylcholinesterase (Electrophorus electricus) (UniProt O42275); test: Mixed-type inhibition of electric eel AChE at 2.5 to 10 nM using varying levels of acetylthiocholine iodide as substrate by Lineweaver-Burk plot analysis
[17] = tested on: PC-12; test: Protection against CoCl2-induced damage in rat PC12 cells assessed as cell viability at 5 uM preincubated for 36 hrs followed by CoCl2 addition measured after 12 hrs by MTT assay (reference value: 51.2%); type: functional; settings: read-out: Activity
[18] = in vitro; settings: human, HepG2 cells; remark: listed apart in the source
Description: Cytotoxicity against human HepG2 cells assessed as cell viability at 5 uM after 24 hrs by MTT assay relative to control

[19] = in vitro; settings: human, HepG2 cells; remark: listed apart in the source
Description: Cytotoxicity against human HepG2 cells assessed as cell viability at 2.5 uM after 24 hrs by MTT assay relative to control

[20] = target: Amyloid-beta precursor protein (Homo sapiens) (UniProt P05067); test: Inhibition of self-induced amyloid beta (1 to 42) (unknown origin) aggregation up to 100 uM measured after 24 hrs by ThT fluorescence assay

Amyloid-beta precursor protein (Homo sapiens), sequence (P05067 whole entry): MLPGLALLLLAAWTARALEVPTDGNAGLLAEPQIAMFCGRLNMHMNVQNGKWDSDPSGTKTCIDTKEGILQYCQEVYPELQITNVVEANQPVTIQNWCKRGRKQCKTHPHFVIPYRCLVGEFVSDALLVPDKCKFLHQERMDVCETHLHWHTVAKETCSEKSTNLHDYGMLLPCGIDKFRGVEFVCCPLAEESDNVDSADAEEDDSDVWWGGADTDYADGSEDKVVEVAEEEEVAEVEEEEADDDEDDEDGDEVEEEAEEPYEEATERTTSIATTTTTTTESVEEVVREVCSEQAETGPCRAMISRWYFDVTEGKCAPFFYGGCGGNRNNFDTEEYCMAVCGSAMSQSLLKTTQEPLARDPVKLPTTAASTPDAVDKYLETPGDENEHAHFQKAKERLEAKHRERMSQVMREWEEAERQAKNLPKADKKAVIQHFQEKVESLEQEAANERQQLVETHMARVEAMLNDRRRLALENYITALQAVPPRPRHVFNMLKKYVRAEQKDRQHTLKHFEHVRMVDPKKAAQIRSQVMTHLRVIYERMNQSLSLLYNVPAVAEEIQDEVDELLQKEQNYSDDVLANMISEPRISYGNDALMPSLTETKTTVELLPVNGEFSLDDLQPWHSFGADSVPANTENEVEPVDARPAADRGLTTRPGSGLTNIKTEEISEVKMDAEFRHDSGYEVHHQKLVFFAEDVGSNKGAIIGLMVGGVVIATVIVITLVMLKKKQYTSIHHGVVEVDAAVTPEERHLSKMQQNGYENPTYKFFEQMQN
Acetylcholinesterase (Electrophorus electricus, UniProt O42275), sequence (O42275 whole entry): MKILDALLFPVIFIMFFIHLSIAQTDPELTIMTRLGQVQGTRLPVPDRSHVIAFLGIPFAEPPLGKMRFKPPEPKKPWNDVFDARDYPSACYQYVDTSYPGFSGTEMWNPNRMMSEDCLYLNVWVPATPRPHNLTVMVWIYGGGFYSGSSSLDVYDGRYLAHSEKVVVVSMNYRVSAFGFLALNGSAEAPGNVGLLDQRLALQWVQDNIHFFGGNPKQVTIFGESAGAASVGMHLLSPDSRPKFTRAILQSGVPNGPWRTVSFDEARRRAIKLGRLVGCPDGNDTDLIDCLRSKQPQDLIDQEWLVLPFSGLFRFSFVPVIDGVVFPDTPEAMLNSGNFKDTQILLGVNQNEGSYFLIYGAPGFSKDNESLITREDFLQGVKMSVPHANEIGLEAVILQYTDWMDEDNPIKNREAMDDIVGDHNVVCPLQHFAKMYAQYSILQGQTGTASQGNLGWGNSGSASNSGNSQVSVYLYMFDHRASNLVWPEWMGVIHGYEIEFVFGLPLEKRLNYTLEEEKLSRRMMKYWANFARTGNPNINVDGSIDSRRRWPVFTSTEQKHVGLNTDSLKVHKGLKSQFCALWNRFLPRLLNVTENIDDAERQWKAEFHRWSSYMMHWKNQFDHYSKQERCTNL
T1 sequence (P22303 whole entry): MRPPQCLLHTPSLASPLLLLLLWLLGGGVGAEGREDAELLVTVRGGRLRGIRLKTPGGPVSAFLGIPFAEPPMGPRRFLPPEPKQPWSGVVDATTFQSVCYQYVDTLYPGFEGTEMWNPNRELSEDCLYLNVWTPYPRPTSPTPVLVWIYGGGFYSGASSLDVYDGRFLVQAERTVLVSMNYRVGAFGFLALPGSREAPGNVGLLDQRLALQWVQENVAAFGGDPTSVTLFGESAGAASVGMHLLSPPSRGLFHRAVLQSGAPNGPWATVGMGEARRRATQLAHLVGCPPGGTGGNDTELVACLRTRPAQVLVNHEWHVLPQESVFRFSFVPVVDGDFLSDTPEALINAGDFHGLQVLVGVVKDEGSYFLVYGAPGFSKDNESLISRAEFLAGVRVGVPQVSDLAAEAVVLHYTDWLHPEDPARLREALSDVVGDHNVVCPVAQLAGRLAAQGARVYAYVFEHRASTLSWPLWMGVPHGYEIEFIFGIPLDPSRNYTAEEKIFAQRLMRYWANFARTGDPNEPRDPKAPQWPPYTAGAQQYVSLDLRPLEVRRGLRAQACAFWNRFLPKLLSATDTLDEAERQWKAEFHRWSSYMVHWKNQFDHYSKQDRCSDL
Cholinesterase (Equus caballus, UniProt P81908), sequence (P81908 whole entry): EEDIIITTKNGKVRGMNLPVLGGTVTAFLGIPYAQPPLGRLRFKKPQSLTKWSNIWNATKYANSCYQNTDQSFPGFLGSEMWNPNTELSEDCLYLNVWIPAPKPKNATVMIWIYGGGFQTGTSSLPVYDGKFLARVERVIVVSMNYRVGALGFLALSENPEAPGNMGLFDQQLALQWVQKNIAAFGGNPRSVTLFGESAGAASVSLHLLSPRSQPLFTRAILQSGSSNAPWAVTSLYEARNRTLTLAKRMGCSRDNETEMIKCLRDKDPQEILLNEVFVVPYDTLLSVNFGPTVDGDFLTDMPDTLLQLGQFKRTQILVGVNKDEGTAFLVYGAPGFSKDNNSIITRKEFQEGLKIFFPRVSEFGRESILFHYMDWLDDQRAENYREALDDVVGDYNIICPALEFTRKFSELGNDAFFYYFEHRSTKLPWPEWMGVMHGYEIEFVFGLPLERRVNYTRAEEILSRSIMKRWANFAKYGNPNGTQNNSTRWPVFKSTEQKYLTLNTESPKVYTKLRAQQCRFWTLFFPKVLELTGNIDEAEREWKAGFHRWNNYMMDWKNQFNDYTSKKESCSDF
Cholinesterase (Homo sapiens, UniProt P06276), sequence (P06276 whole entry): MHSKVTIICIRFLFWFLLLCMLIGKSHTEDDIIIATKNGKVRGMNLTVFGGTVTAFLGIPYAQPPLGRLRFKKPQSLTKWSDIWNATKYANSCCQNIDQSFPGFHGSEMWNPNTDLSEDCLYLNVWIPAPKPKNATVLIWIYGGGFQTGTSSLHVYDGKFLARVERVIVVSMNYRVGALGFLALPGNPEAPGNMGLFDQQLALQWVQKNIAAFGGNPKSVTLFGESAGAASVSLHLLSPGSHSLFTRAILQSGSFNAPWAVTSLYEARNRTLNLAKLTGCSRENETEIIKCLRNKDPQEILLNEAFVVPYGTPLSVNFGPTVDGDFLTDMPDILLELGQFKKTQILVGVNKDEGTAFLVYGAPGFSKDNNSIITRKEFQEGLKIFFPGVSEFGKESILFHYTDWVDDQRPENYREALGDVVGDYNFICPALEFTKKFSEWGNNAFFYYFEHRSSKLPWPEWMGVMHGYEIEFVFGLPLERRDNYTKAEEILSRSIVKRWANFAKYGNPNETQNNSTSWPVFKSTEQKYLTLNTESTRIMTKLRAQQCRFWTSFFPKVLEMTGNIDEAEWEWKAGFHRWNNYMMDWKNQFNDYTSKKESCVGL
Acetylcholinesterase (Electrophorus electricus), sequence (O42275 24-633 limits assumed): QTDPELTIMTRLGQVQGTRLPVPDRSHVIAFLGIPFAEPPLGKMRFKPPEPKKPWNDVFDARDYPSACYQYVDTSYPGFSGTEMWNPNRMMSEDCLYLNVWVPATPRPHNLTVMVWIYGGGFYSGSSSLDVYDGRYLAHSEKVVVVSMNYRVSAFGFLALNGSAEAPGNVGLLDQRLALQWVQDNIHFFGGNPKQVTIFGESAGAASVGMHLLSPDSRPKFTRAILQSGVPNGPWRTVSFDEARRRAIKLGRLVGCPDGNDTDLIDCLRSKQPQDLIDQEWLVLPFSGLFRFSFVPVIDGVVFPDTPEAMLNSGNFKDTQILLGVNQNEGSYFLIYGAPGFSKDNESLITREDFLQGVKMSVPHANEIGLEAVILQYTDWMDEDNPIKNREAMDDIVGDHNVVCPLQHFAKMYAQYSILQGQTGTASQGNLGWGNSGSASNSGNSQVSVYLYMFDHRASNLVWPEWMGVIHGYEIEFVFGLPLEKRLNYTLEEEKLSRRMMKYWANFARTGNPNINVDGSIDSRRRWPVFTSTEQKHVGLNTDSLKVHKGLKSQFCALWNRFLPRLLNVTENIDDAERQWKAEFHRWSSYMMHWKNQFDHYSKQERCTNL

Row | Compound | IC50 [1] | IC50 [2] | also measured
1 | COc1cc(/C=C/C(=O)NCCCNc2c3c(nc4ccccc24)CCCC3)cc(OC)c1OCc1nc(C)c(C)nc1C | 116 nM | > 1000 nM | –
2 | COc1cc(/C=C/C(=O)NCCCCCCCCNc2c3c(nc4ccccc24)CCCC3)cc(OC)c1OCc1nc(C)c(C)nc1C | 145 nM | 16.6 nM | –
3 | Cc1nc(C)c(COc2ccc(CC(O)C(=O)NCCCCNc3c4c(nc5ccccc35)CCCC4)cc2OCc2nc(C)c(C)nc2C)nc1C (centres undefined) | > 1000 nM | > 1000 nM | –
4 | Cc1nc(C)c(COc2ccc(/C=C/C(=O)NCCNc3c4c(nc5ccccc35)CCCC4)cc2OCc2nc(C)c(C)nc2C)nc1C | 108 nM | > 1000 nM | –
5 | O=C(/C=C/c1ccc(O)cc1)NCCCCCCCCNc1c2c(nc3ccccc13)CCCC2 | 522 nM | 278 nM | –
6 | Cc1nc(C)c(COc2ccc(CC(O)C(=O)NCCCNc3c4c(nc5ccccc35)CCCC4)cc2OCc2nc(C)c(C)nc2C)nc1C (centres undefined) | > 1000 nM | 165 nM | –
7 | COc1cc(/C=C/C(=O)NCCNc2c3c(nc4ccccc24)CCCC3)cc(OC)c1O | 101 nM | > 1000 nM | –
8 | COc1cc(/C=C/C(=O)NCCCCNc2c3c(nc4ccccc24)CCCC3)cc(OC)c1OCc1nc(C)c(C)nc1C | 179 nM | > 1000 nM | –
9 | COc1cc(/C=C/C(=O)NCCCCCCCCNc2c3c(nc4ccccc24)CCCC3)ccc1OCc1nc(C)c(C)nc1C | 304 nM | 174 nM | –
10 | Cc1nc(C)c(COc2ccc(/C=C/C(=O)NCCCCNc3c4c(nc5ccccc35)CCCC4)cc2)nc1C | 334 nM | 2.3 nM | –
11 | COc1cc(/C=C/C(=O)NCCCCNc2c3c(nc4ccccc24)CCCC3)cc(OC)c1O | 64.4 nM | 241 nM | –
12 | Cc1nc(C)c(COc2ccc(/C=C/C(=O)NCCCNc3c4c(nc5ccccc35)CCCC4)cc2)nc1C | 205 nM | 5.2 nM | –
13 | COc1cc(/C=C/C(=O)NCCCCCCNc2c3c(nc4ccccc24)CCCC3)cc(OC)c1O | 3.9 nM | 24.3 nM | inhibition [3]: Active; viability at 24 h, 10 µM [4]: 81.8%; Ratio IC50 [5]: 2; Activity [6]: Dose-dependent effect; viability at 48 h, 10 µM [7]: 131%; inhibition [8]: 48%; inhibition [9]: 47%; viability at 10 µM [10]: 107%; viability at 2.5 µM [11]: 92.4%; inhibition [12]: Dose-dependent effect; viability at 24 h, 1.25 µM [13]: 98.4%; IC50 [14]: 48.8 nM; IC50 [15]: 65.2 nM; inhibition [16]: Active; viability at 5 µM [17]: 99.5%; viability at 24 h, 5 µM [18]: 94.9%; viability at 24 h, 2.5 µM [19]: 96.3%
14 | COc1cc(/C=C/C(=O)NCCCCNc2c3c(nc4ccccc24)CCCC3)ccc1OCc1nc(C)c(C)nc1C | 188 nM | 32.4 nM | –
15 | COc1cc(/C=C/C(=O)NCCCNc2c3c(nc4ccccc24)CCCC3)ccc1OCc1nc(C)c(C)nc1C | 12.2 nM | 22.6 nM | –
16 | O=C(/C=C/c1ccc(O)cc1)NCCCCNc1c2c(nc3ccccc13)CCCC2 | 139 nM | 29.8 nM | –
17 | Cc1nc(C)c(COc2ccc(/C=C/C(=O)NCCCCCCCCNc3c4c(nc5ccccc35)CCCC4)cc2)nc1C | 264 nM | 228 nM | –
18 | Cc1nc(C)c(COc2ccc(CC(O)C(=O)NCCCCCCCCNc3c4c(nc5ccccc35)CCCC4)cc2OCc2nc(C)c(C)nc2C)nc1C (centres undefined) | 65.1 nM | 3.8 nM | –

Row | Compound | IC50 [1] | IC50 [2] | also measured
19 | O=C(/C=C/c1ccc(O)cc1)NCCCNc1c2c(nc3ccccc13)CCCC2 | 128 nM | 43.3 nM | –
20 | Cc1nc(C)c(COc2ccc(/C=C/C(=O)NCCCCCCNc3c4c(nc5ccccc35)CCCC4)cc2)nc1C | 304 nM | 147 nM | –
21 | COc1cc(/C=C/C(=O)NCCNc2c3c(nc4ccccc24)CCCC3)ccc1OCc1nc(C)c(C)nc1C | 33.1 nM | 502 nM | –
22 | Cc1nc(C)c(COc2ccc(CC(O)C(=O)NCCNc3c4c(nc5ccccc35)CCCC4)cc2OCc2nc(C)c(C)nc2C)nc1C (centres undefined) | > 1000 nM | 816 nM | –
23 | O=C(/C=C/c1ccc(O)cc1)NCCNc1c2c(nc3ccccc13)CCCC2 | 110 nM | 302 nM | –
24 | COc1cc(/C=C/C(=O)NCCNc2c3c(nc4ccccc24)CCCC3)cc(OC)c1OCc1nc(C)c(C)nc1C | 65.3 nM | 613 nM | –
25 | Cc1nc(C)c(COc2ccc(/C=C/C(=O)NCCNc3c4c(nc5ccccc35)CCCC4)cc2)nc1C | 44.9 nM | 589 nM | –
26 | COc1cc(/C=C/C(=O)NCCCNc2c3c(nc4ccccc24)CCCC3)cc(OC)c1O | 25.8 nM | 330 nM | –
27 | Cc1c(C)c2c(c(C)c1O)CCC(C)(C(=O)O)O2 (centres undefined) [TROLOX] | – | – | viability at 10 µM [10]: 101%
28 | Cc1nc(C)c(COc2ccc(/C=C/C(=O)NCCCCCCNc3c4c(nc5ccccc35)CCCC4)cc2OCc2nc(C)c(C)nc2C)nc1C | 136 nM | 68.1 nM | –
29 | Cc1nc(C)c(COc2ccc(CC(O)C(=O)NCCCCCCNc3c4c(nc5ccccc35)CCCC4)cc2OCc2nc(C)c(C)nc2C)nc1C (centres undefined) | 270 nM | 1.3 nM | –
30 | Cc1nc(C)c(COc2ccc(/C=C/C(=O)NCCCCNc3c4c(nc5ccccc35)CCCC4)cc2OCc2nc(C)c(C)nc2C)nc1C | 139 nM | 111 nM | –
31 | O=C(/C=C/c1ccc(O)cc1)NCCCCCCNc1c2c(nc3ccccc13)CCCC2 | 44.6 nM | 24.1 nM | –
32 | COc1cc(/C=C/C(=O)NCCCCCCNc2c3c(nc4ccccc24)CCCC3)ccc1OCc1nc(C)c(C)nc1C | 14.7 nM | 28.3 nM | –
33 | COc1cc(/C=C/C(=O)NCCCCCCNc2c3c(nc4ccccc24)CCCC3)cc(OC)c1OCc1nc(C)c(C)nc1C | 2.6 nM | 28.6 nM | inhibition [20]: inactive; viability at 10 µM [10]: 11.2%; viability at 2.5 µM [11]: 37.7%; IC50 [14]: 577 nM; IC50 [15]: 108 nM; viability at 5 µM [17]: 15%
34 | COc1cc(/C=C/C(=O)NCCCCCCCCNc2c3c(nc4ccccc24)CCCC3)cc(OC)c1O | 32.5 nM | 9.3 nM | –
35 | Cc1nc(C)c(COc2ccc(/C=C/C(=O)NCCCCCCCCNc3c4c(nc5ccccc35)CCCC4)cc2OCc2nc(C)c(C)nc2C)nc1C | > 1000 nM | 61.8 nM | –
36 | Cc1nc(C)c(COc2ccc(/C=C/C(=O)NCCCNc3c4c(nc5ccccc35)CCCC4)cc2OCc2nc(C)c(C)nc2C)nc1C | 13.7 nM | 199 nM | –
